Source: the NIST ThermoML archive (doi:10.1016/j.fluid.2006.05.032)

Assay: xn = mol fraction of the nth substance listed
Conditions: Liquid, Vibrating tube method, x1 = 1

CCCO [propan-1-ol] + Cc1ccccc1
mass density [kg/m3]
Conditions	293.15 K	303.15 K	313.15 K	323.15 K	333.15 K	343.15 K	353.15 K
100 kPa	803.5	795.2	787.6	779.3	770.5	761	752.2
5000 kPa	807.3	799.2	791.9	783.7	775.4	766	757.6
10000 kPa	810.9	802.9	795.9	788	780	770.7	762.7
15000 kPa	814.3	806.7	799.7	792	784.3	775.3	767.6
20000 kPa	817.7	810.1	803.3	795.8	788.4	779.6	772.1
25000 kPa	821	813.6	806.8	799.7	792	783.7	776.3
30000 kPa	824	816.7	810.2	803.2	795.7	787.6	780.4
35000 kPa	827	819.8	813.5	806.6	799.2	791.2	784.1
40000 kPa	829.9	822.9	816.6	809.9	802.6	794.7	787.7
45000 kPa	832.7	825.8	819.7	813	805.9	798.3	791.8
50000 kPa	835.4	828.8	822.7	816.1	809.1	801.6	795.1
55000 kPa	838.1	831.6	825.5	819	812.3	804.6	798.5
60000 kPa	840.7	834.2	828.3	821.8	815.2	807.7	801.7
65000 kPa	843.2	837	831	824.6	818.1	810.6	805
